For 4 compounds, Ki results are on record in BindingDB's records for doi:10.1021/jm960083n (Dupont Pharmaceuticals, 1996).

In the experiment the target is T1, Dimer of Gag-Pol polyprotein [489-587] (Human immunodeficiency virus 1, UniProt P12497).
T1 construct: 489-587
The experiment in a line: Protease Inhibition Assay. The conditions noted are these: pH 5.5; 37 °C. On the procedure:
Inhibition of HIV protease was measured by assay of the cleavage of a fluorescent peptide substrate. The fluorescent product (2-aminobenzoyl-Ala-Thr-His-Gln-Val-Tyr) was separated from the fluorescent substrate by anion-exchange HPLC on a Mono-Q anion-exchange column (Pharmacia), and fluorescence was monitored at an excitation wavelength of 330 nm and an emission wavelength of 430 nm. Ki values for inhibitor binding were estimated at fixed concentrations of substrate and inhibitor from fractional activity measurements by use of the modified Michaelis-Menten equation.

In general, Ki refers to the dissociation constant of the complex between target and ligand, obtained from inhibition or displacement.

As to `COc1cc(C[C@@H]2[C@H](O)[C@@H](O)[C@@H](Cc3cc(OC)cc(OC)c3)N(Cc3cccc(C(C)=O)c3)C(=O)N2Cc2cccc(C(C)=O)c2)cc(OC)c1` [(4R,5S,6S,7R)-4,7-bis[(3,5-dimethoxyphenyl)methyl]-1,3-bis[(3-acetylphenyl)methyl]-5,6-dihydroxy-1,3-diazepan-2-one], the Ki was 400 pM.

As for `CC(=O)c1cccc(CN2C(=O)N(Cc3cccc(C(C)=O)c3)[C@H](Cc3ccc4c(c3)OCO4)[C@H](O)[C@@H](O)[C@H]2Cc2ccc3c(c2)OCO3)c1` [(4R,5S,6S,7R)-Hexahydro-5,6-dihydroxy-1,3-bis(3-acetylbenzyl)-4,7-bis((3,4-(methylenedioxy)phenyl)methyl)-2H-1,3-diazapin-2-one], the Ki was found to be 43 pM. Then `CC(=O)c1cccc(CN2C(=O)N(Cc3cccc(C(C)=O)c3)[C@H](Cc3ccc4c(c3)N(C)CCO4)[C@H](O)[C@@H](O)[C@H]2Cc2ccc3c(c2)N(C)CCO3)c1` [(4R,5S,6S,7R)-Hexahydro-5,6-dihydroxy-1,3-bis(3-acetylbenzyl)-4,7-bis((4-methyl-3,4-dihydro-2H-benzo[b][1,4]-oxazin-6-yl)methyl)-2H-1,3-diazapin-2-one], with 80 pM. In the case of `CC(=O)c1cc(CN2C(=O)N(Cc3ccc(F)c(C(C)=O)c3)[C@H](Cc3ccc4c(c3)OCO4)[C@H](O)[C@@H](O)[C@H]2Cc2ccc3c(c2)OCO3)ccc1F` [(4R,5S,6S,7R)-Hexahydro-5,6-dihydroxy-1,3-bis(4-fluoro-3-acetylbenzyl)-4,7-bis((3,4-(methylenedioxy)phenyl)methyl)-2H-1,3-diazapin-2-one], the Ki is 1500 pM.
